Measurements reported in US20100267561A1, “HERBICIDAL PYRIDAZINONE DERIVATIVES” (priority 2007, published 2010).
Like-named read-outs stand apart in the source and are kept apart here.

What was measured:
Assay type in all cases: in vivo
[1] = tested on: bermudagrass (Cynodon dactylon); test: Test B pre-/postemergence plant response; details: for Bermudagrass plant response rating: 8 g ai/ha, postemergence, 0-100 scale; for Plant response rating, Bermudagrass: Postemergence
How it was run: (§1)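 Visual scoring from 0 (no effect) to 100 (complete control) against untreated controls was done 13 to 15 days after greenhouse treatment. Chemicals were formulated in a surfactant-containing non-phytotoxic solvent and applied to soil preemergence or to 1- to 4-leaf (2-18 cm) plants postemergence.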

[2] = tested on: cocklebur (Xanthium strumarium); test: Test B pre-/postemergence plant response; details: for Cocklebur plant response rating: 8 g ai/ha, postemergence, 0-100 scale; for Plant response rating, Cocklebur: Postemergence
How it was run: as §1

[3] = tested on: common ragweed (Ambrosia elation); test: Test B pre-/postemergence plant response; details: for Ragweed plant response rating: postemergence, 0-100 scale; for Plant response rating, Ragweed: Postemergence
How it was run: as §1

[4] = tested on: corn (Zea mays); test: Test B pre-/postemergence plant response; details: for Corn plant response rating: 8 g ai/ha, postemergence, 0-100 scale; for Plant response rating, Corn: Postemergence
How it was run: as §1

[5] = tested on: goosegrass (Eleusine indica); test: Test B pre-/postemergence plant response; details: for Goosegrass plant response rating: postemergence, 0-100 scale; for Plant response rating, Goosegrass: Postemergence
How it was run: as §1

[6] = tested on: kochia (Kochia scoparia); test: Test B pre-/postemergence plant response; details: for Kochia plant response rating: postemergence, 0-100 scale; for Plant response rating, Kochia: Postemergence
How it was run: as §1

[7] = tested on: lambsquarters (Chenopodium album); test: Test B pre-/postemergence plant response; details: for Lambsquarters plant response rating: postemergence, 0-100 scale; for Plant response rating, Lambsquarters: Postemergence
How it was run: as §1

[8] = tested on: large crabgrass (Digitaria sanguinalis); test: Test B pre-/postemergence plant response; details: for Crabgrass, Large plant response rating: 8 g ai/ha, postemergence, 0-100 scale; for Plant response rating, Crabgrass, Large: Postemergence
How it was run: as §1

[9] = tested on: soybean (Glycine max); test: Test B pre-/postemergence plant response; details: for Soybean plant response rating: postemergence, 0-100 scale; for Plant response rating, Soybean: Postemergence
How it was run: as §1

[10] = tested on: surinam grass (Brachiaria decumbens); test: Test B pre-/postemergence plant response; details: for Surinam Grass plant response rating: postemergence, 0-100 scale; for Plant response rating, Surinam Grass: Postemergence
How it was run: as §1

[11] = tested on: wheat (Triticum aestivum); test: Test B pre-/postemergence plant response; details: for Wheat plant response rating: postemergence, 0-100 scale; for Plant response rating, Wheat: Postemergence
How it was run: as §1

[12] = tested on: ducksalad (Heteranthera limosa); test: Test B flooded paddy test plant response
How it was run: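 Step one: raise plants to 2 leaves. Step two: flood pots 3 cm over the soil and apply compound into the water, keeping this depth. Step three: after 13–15 greenhouse days, score visually versus controls, 0–100, where 100 means complete control.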

[13] = 62 g ai/ha, scale 0 to 100, 0 no effect, 100 complete control
[14] = Flood (flooded paddy test), 62 g ai/ha, scale 0 to 100, 0 no effect, 100 complete control
[15] = Flood (flooded paddy test), 250 g ai/ha, scale 0 to 100, 0 no effect, 100 complete control
[16] = Heteranthera limosa, Flood (flooded paddy test), 250 g ai/ha, scale 0 to 100, 0 no effect, 100 complete control, read-out: Plant response rating, Ducksalad
[17] = Heteranthera limosa, Flood, 62 g ai/ha, scale 0 to 100, read-out: Plant response rating, Ducksalad

Structure (SMILES): Cc1nn(C)c(=O)c(-n2nc(-c3ccc(Cl)cc3)cc2Cl)c1O [Compound 59]
- Bermudagrass plant response rating [1]: 0
- Plant response rating, Bermudagrass ([1]; 16 g ai/ha, scale 0 to 100): 0
- Plant response rating, Bermudagrass ([1]; 31 g ai/ha, scale 0 to 100): 0
- Plant response rating, Bermudagrass [1, 13]: 20
- Cocklebur plant response rating [2]: 0
- Plant response rating, Cocklebur ([2]; 16 g ai/ha, scale 0 to 100): 0
- Plant response rating, Cocklebur ([2]; 31 g ai/ha, scale 0 to 100): 0
- Plant response rating, Cocklebur [2, 13]: 0
- Ragweed plant response rating ([3]; 8 g ai/ha): 0
- Plant response rating, Ragweed ([3]; 16 g ai/ha, scale 0 to 100): 0
- Plant response rating, Ragweed ([3]; 31 g ai/ha, scale 0 to 100): 0
- Plant response rating, Ragweed [3, 13]: 0
- Corn plant response rating [4]: 0
- Plant response rating, Corn ([4]; 16 g ai/ha, scale 0 to 100): 85
- Plant response rating, Corn ([4]; 31 g ai/ha, scale 0 to 100): 85
- Plant response rating, Corn [4, 13]: 90
- Goosegrass plant response rating ([5]; 8 g ai/ha): 0
- Plant response rating, Goosegrass ([5]; 16 g ai/ha, scale 0 to 100): 0
- Plant response rating, Goosegrass ([5]; 31 g ai/ha, scale 0 to 100): 0
- Plant response rating, Goosegrass [5, 13]: 0
- Kochia plant response rating ([6]; 8 g ai/ha): 0
- Plant response rating, Kochia ([6]; 16 g ai/ha, scale 0 to 100): 0
- Plant response rating, Kochia ([6]; 31 g ai/ha, scale 0 to 100): 0
- Plant response rating, Kochia [6, 13]: 0
- Lambsquarters plant response rating ([7]; 8 g ai/ha): 0
- Plant response rating, Lambsquarters ([7]; 16 g ai/ha, scale 0 to 100): 0
- Plant response rating, Lambsquarters ([7]; 31 g ai/ha, scale 0 to 100): 0
- Plant response rating, Lambsquarters [7, 13]: 0
- Crabgrass, Large plant response rating [8]: 20
- Plant response rating, Crabgrass, Large ([8]; 16 g ai/ha, scale 0 to 100): 45
- Plant response rating, Crabgrass, Large ([8]; 31 g ai/ha, scale 0 to 100): 55
- Plant response rating, Crabgrass, Large [8, 13]: 60
- Soybean plant response rating ([9]; 8 g ai/ha): 0
- Plant response rating, Soybean ([9]; 16 g ai/ha, scale 0 to 100): 0
- Plant response rating, Soybean ([9]; 31 g ai/ha, scale 0 to 100): 0
- Plant response rating, Soybean [9, 13]: 0
- Surinam Grass plant response rating ([10]; 8 g ai/ha): 75
- Plant response rating, Surinam Grass ([10]; 16 g ai/ha, scale 0 to 100): 85
- Plant response rating, Surinam Grass ([10]; 31 g ai/ha, scale 0 to 100): 90
- Plant response rating, Surinam Grass [10, 13]: 100
- Wheat plant response rating ([11]; 8 g ai/ha): 0
- Plant response rating, Wheat ([11]; 16 g ai/ha, scale 0 to 100): 15
- Plant response rating, Wheat ([11]; 31 g ai/ha, scale 0 to 100): 40
- Plant response rating, Wheat [11, 13]: 50
- Plant response rating, Ducksalad [12, 14]: 0
- Plant response rating, Ducksalad [12, 15]: 20

Structure (SMILES): Cn1ncc(O)c(-c2nn(-c3ccc(C(F)(F)F)cc3)cc2Br)c1=O [Compound 87, 4-[4-bromo-1-[4-(trifluoromethyl)phenyl]-1H-pyrazol-3-yl]-5-hydroxy-2-methyl-3(2H)-pyridazinone]
- pest or weed control at 250 g/ha [12, 16]: 0%
- pest or weed control at 62 g/ha [12, 17]: 0%

Structure (SMILES): Cc1cn(-c2ccc(C(F)(F)F)cc2)nc1-c1c(O)cnn(C)c1=O [Compound 85, 5-hydroxy-2-methyl-4-[4-methyl-1-[4-(trifluoromethyl)phenyl]-1H-pyrazol-3-yl]-3(2H)-pyridazinone]
- pest or weed control at 250 g/ha [12, 16]: 0%
- pest or weed control at 62 g/ha [12, 17]: 0%

Structure (SMILES): CCc1cc(-c2ccc(Br)cc2)nn1-c1c(O)cnn(CC(F)(F)F)c1=O [Compound 73]
- Bermudagrass plant response rating [1]: 0
- Plant response rating, Bermudagrass ([1]; 16 g ai/ha, scale 0 to 100): 0
- Plant response rating, Bermudagrass ([1]; 31 g ai/ha, scale 0 to 100): 10
- Plant response rating, Bermudagrass [1, 13]: 10
- Cocklebur plant response rating [2]: 0
- Plant response rating, Cocklebur ([2]; 16 g ai/ha, scale 0 to 100): 0
- Plant response rating, Cocklebur ([2]; 31 g ai/ha, scale 0 to 100): 0
- Plant response rating, Cocklebur [2, 13]: 0
- Ragweed plant response rating ([3]; 8 g ai/ha): 0
- Ragweed plant response rating ([3]; 16 g ai/ha): 0
- Plant response rating, Ragweed ([3]; 31 g ai/ha, scale 0 to 100): 0
- Plant response rating, Ragweed [3, 13]: 0
- Corn plant response rating [4]: 95
- Plant response rating, Corn ([4]; 16 g ai/ha, scale 0 to 100): 100
- Plant response rating, Corn ([4]; 31 g ai/ha, scale 0 to 100): 100
- Plant response rating, Corn [4, 13]: 100
- Goosegrass plant response rating ([5]; 8 g ai/ha): 70
- Goosegrass plant response rating ([5]; 16 g ai/ha): 90
- Plant response rating, Goosegrass ([5]; 31 g ai/ha, scale 0 to 100): 90
- Plant response rating, Goosegrass [5, 13]: 90
- Kochia plant response rating ([6]; 8 g ai/ha): 0
- Kochia plant response rating ([6]; 16 g ai/ha): 0
- Plant response rating, Kochia ([6]; 31 g ai/ha, scale 0 to 100): 0
- Plant response rating, Kochia [6, 13]: 0
- Lambsquarters plant response rating ([7]; 8 g ai/ha): 0
- Lambsquarters plant response rating ([7]; 16 g ai/ha): 0
- Plant response rating, Lambsquarters ([7]; 31 g ai/ha, scale 0 to 100): 0
- Plant response rating, Lambsquarters [7, 13]: 0
- Crabgrass, Large plant response rating [8]: 45
- Plant response rating, Crabgrass, Large ([8]; 16 g ai/ha, scale 0 to 100): 70
- Plant response rating, Crabgrass, Large ([8]; 31 g ai/ha, scale 0 to 100): 100
- Plant response rating, Crabgrass, Large [8, 13]: 100
- Soybean plant response rating ([9]; 8 g ai/ha): 0
- Soybean plant response rating ([9]; 16 g ai/ha): 0
- Plant response rating, Soybean ([9]; 31 g ai/ha, scale 0 to 100): 10
- Plant response rating, Soybean [9, 13]: 10
- Surinam Grass plant response rating ([10]; 8 g ai/ha): 60
- Surinam Grass plant response rating ([10]; 16 g ai/ha): 90
- Plant response rating, Surinam Grass ([10]; 31 g ai/ha, scale 0 to 100): 90
- Plant response rating, Surinam Grass [10, 13]: 100
- Wheat plant response rating ([11]; 8 g ai/ha): 5
- Wheat plant response rating ([11]; 16 g ai/ha): 60
- Plant response rating, Wheat ([11]; 31 g ai/ha, scale 0 to 100): 90
- Plant response rating, Wheat [11, 13]: 95
- Plant response rating, Ducksalad [12, 14]: 0
- Plant response rating, Ducksalad ([12]; Flood (flooded paddy test), 125 g ai/ha, scale 0 to 100, 0 no effect, 100 complete control): 0
- Plant response rating, Ducksalad [12, 15]: 0
- Plant response rating, Ducksalad ([12]; Flood, 31 g ai/ha, scale 0 to 100): 0

Structure (SMILES): Cc1cc(-c2ccc(Br)cc2)nn1-c1c(O)cnn(C2CCCCO2)c1=O (stereo not drawn) [Compound 77, 4-[3-(4-bromophenyl)-5-methyl-1H-pyrazol-1-yl]-5-hydroxy-2-(tetrahydro-2H-pyran-2-yl)-3(2H)-pyridazinone]
- pest or weed control at 62 g/ha ([12]; Heteranthera limosa, Flood (flooded paddy test), 62 g ai/ha, scale 0 to 100, 0 no effect, 100 complete control, read-out: Plant response rating, Ducksalad): 0%
- pest or weed control at 125 g/ha ([12]; Heteranthera limosa, Flood (flooded paddy test), 125 g ai/ha, scale 0 to 100, 0 no effect, 100 complete control, read-out: Plant response rating, Ducksalad): 0%
- pest or weed control at 250 g/ha [12, 16]: 0%
- pest or weed control at 31 g/ha ([12]; Heteranthera limosa, Flood, 31 g ai/ha, scale 0 to 100, read-out: Plant response rating, Ducksalad): 0%
